Results taken from patent US6903116B2, “Methods of treating cancer using a heat shock factor activity inhibitor” (Kaneka Corp., priority 1997, dated 2005).

Columns and labels:
[1] = system: promoter region including the HSE sequence for HSP47; test: Reporter protein expression suppression, stable transformant A (HSE/HSP47 promoter β-galactosidase); assay type: cell-based, Chinese hamster; details: heat shock 42° C. 90 min, relative to DMSO
Source text: A plasmid was produced in which a β-galactosidase gene was located downstream of a promoter region including the HSE sequence for HSP47. […] Chinese hamster ovary (CHO) cells were transfected with the plasmid to obtain stable transformant […]. These stable transformants were pre-treated with Compounds 101, 102 and 103 above and Compound C (1-acetyl-3-benzo-(1,3)dioxole-5-ylmethylene-pyrrolidin-2-one; this compound is represented by general formula (I) of the present invention wherein X is —CH2— and R^1 is acetyl) in a CO2 incubator at 37° C. for 60 min. Then, the transformants were subjected to a heat shock of 42° C. for 90 min, recovered at 37° C. for 2 hours, and incubated at a room temperature for 30 min with 4-methylumbelliferyl-β-D-galactoside as a substrate for the activity of β-galactosidase expressed in the cell. Then, the fluorescence was measured (excitation at 365 nm, emission at 450 nm). The amount of β-galactosidase expressed after a treatment with test compounds or the known HSF and HSP inhibitor quercetin as a control agent was divided by the amount of β-galactosidase expressed after a treatment with dimethylsulfoxide (DMSO) as a solvent control, thereby calculating the expression rate (%) as shown in Table 1.

[2] = system: SV40 early promoter; test: Reporter protein expression suppression, stable transformant B (SV40 early promoter β-galactosidase); assay type: cell-based, Chinese hamster; details: heat shock 42° C. 90 min, relative to DMSO
[3] = system: HSP70 (inducible type) mRNA; test: Transcription suppression of HSP70 (inducible type) mRNA by Northern hybridization; assay type: cell-based; details: COLO320DM cells, heat shock 42° C. 90 min; for Transcription Amount of HSP70 (induced type): 100 μM, DMSO = 1.0
Experimental: COLO320DM cells (ATCC CCL-220) were pre-treated with Compounds 101, 102 and 103 in a CO2 incubator at 37° C. for 60 min using 10% FCS, DMEM medium (Gibco BRL), after which the cell was subjected to a heat shock of 42° C. for 90 min. Immediately thereafter, the treated cells were collected, and total RNA was extracted from the cells by using the acid guanidine thiocyanate phenol chloroform (AGPC) method. The total RNA was electrophoresed, transferred to a nylon filter, and the amounts of HSP mRNA were compared among experimental groups by using the Northern hybridization method. cDNA of HSP70 (inducible type) labeled with [α-^32P] dCTP was used as a probe, and cDNA of β-actin was used as an internal control. […] Table 2 provides comparison in the amount of transcription of HSP70 (inducible type) among cells which were subjected to a heat shock after treatment with the respective compounds, with the amount of induced transcription in a cell treated with the control solvent DMSO being 1.0.

[4] = system: HSP40; test: HSP expression induction suppression by 2-dimensional electrophoresis, HSP40; assay type: cell-based; design: key: ↑↑↑: Not Suppressed (Strongly Induced); ↓: Slightly Suppressed; ↓↓: Suppressed; ↓↓↓: Strongly Suppressed; details: 100 μM; COLO320DM cells; compared with DMSO control
Experimental: (§1) COLO320DM cells were pre-treated with Compounds 101, 102 and 103 at 37° C. for 60 min, followed by application of a heat shock at 42° C. for 90 min, and recovery at 37° C. for 2 hours. Then, the media were replaced with methionine-free media, and the cells were treated at 37° C. for 1 hour with ^35S-methionine to label newly synthesized proteins.
(§2) The cell lysate was obtained, subjected to an isoelectric focusing as the first dimension and then to an expansion by SDS-PAGE as the second dimension. Then, the gel was subjected to fluorography so as to compare between the amounts of HSP synthesized with and without heat induction. Comparison between the amounts of β-actin synthesized as an internal control with and without heat induction confirmed that the other proteins were normally synthesized.

[5] = system: HSP47; test: HSP expression induction suppression by 2-dimensional electrophoresis, HSP47; assay type: cell-based; design: key: ↑↑↑: Not Suppressed (Strongly Induced); ↓: Slightly Suppressed; ↓↓: Suppressed; ↓↓↓: Strongly Suppressed; details: 100 μM; COLO320DM cells; compared with DMSO control
Experimental: as §1, §2

[6] = system: HSP70; test: HSP expression induction suppression by 2-dimensional electrophoresis, HSP70; assay type: cell-based; design: key: ↑↑↑: Not Suppressed (Strongly Induced); ↓: Slightly Suppressed; ↓↓: Suppressed; ↓↓↓: Strongly Suppressed; details: 100 μM; COLO320DM cells; compared with DMSO control
Experimental: as §1, §2

[7] = system: HSP90; test: HSP expression induction suppression by 2-dimensional electrophoresis, HSP90; assay type: cell-based; design: key: ↑↑↑: Not Suppressed (Strongly Induced); ↓: Slightly Suppressed; ↓↓: Suppressed; ↓↓↓: Strongly Suppressed; details: 100 μM; COLO320DM cells; compared with DMSO control
Experimental: as §1, §2

[8] = system: HSP100; test: HSP expression induction suppression by 2-dimensional electrophoresis, HSP100; assay type: cell-based; design: key: ↑↑↑: Not Suppressed (Strongly Induced); ↓: Slightly Suppressed; ↓↓: Suppressed; ↓↓↓: Strongly Suppressed; details: 100 μM; COLO320DM cells; compared with DMSO control
Experimental: as §1, §2

[9] = system: β-actin; test: 2-dimensional electrophoresis, β-actin internal control; assay type: cell-based; details: 100 μM; COLO320DM cells
Experimental: as §1, §2

[10] = system: COLO320DM cells; test: Cell heat resistance suppression, colony formation assay; assay type: cell-based; details: 100 μM; pre-heating 42° C. 90 min, then 45° C. 60 min; all colonies counted
Experimental: COLO320DM cells were pre-treated with the above-described compounds at 37° C. for 60 min, followed by pre-heating by application of a heat shock of 42° C. for 90 min. The cells were further treated at 37° C. for 60 min. Then, the media were replaced respectively with compound-free media, and the cells were further incubated at 37° C. for 60 min. Thereafter, the cells were treated at 45° C. for 60 min, and cultured for about 10 days followed by measurement of the number of surviving cells as the number of colonies using a colony formation assay. […] The number of colonies formed without the treatment at 45° C. was substantially the same among all of the drugs.
The compounds of the present invention clearly confirmed to have the inhibitory effect on the acquisition of cell heat resistance, which is greater than that obtained with the known inhibitor quercetin. The surviving fraction was calculated according to the following formula: Surviving Fraction (%)=A/B×100 • A: Cell Survival Fraction With Treatment at 45° C. for 60 min • B: Cell Survival Fraction Without Treatment at 45° C. Cell Survival Fraction=C/D • C: Number of Surviving Cells • D: Number of Cells Seeded

[11] = Antidepressant effect in forced swimming test; assay type: in vivo; details: 100 mg/kg orally once, Wistar male rat; for No-Movement Period: 5-minute test; for Suppression Rate (%): versus physiological saline
Experimental: The experiment was conducted as a partial modification of the Porsolt, R. D. et al. method (Eur. J. Pharm., 47: 379, 1978). In particular, a Wistar male rat (5 weeks of age, weight: 130-150 g) was dropped into water (temperature: 25° C.) about 15 cm deep in a glass cylinder having an inner diameter of 18 cm and a height of 40 cm. The rat was taken out after 15 min, dried and put back into a home cage. […] One hundred mg/kg of each test compound, suspended in a physiological saline, was orally administered once before the 5-minute test so as to examine the antidepression effect. One hundred mg/kg of imipramine, a known antidepressant, as a control drug and 5 ml/kg of a physiological saline as a control were similarly orally administered. A shortened no-movement period was calculated as a suppression rate according to the following formula: Suppression Rate (%)=(E−F)/E×100 • E: No-Movement Period with Physiological Saline • F: No-Movement Period with Test Compound

[12] = system: murine carcinoma cell (SCC VII); test: Inhibitory effect on cancer heat resistance acquisition, tumor growth delay assay; assay type: in vivo, C3H/He mice
Experimental: A murine carcinoma cell (SCC VII) was implanted in the right leg of C3H/He mice (male, about 10 mice for each group), and the experiment was started when the tumor became about 1 cm in diameter. The tumor was heated by soaking the tumor site of each mouse under general anaesthesia into a constant temperature bath at 44° C. The inhibitory effect on the heat resistance acquisition by cancer cell was examined by a growth delay assay on the tumor. Two hundred mg/kg of each test compound, suspended in an olive oil, was intraperitoneally administered once 6 hours before the first heating. The first heating was performed for 10 minutes (H1), and the second heating was performed for 30 minutes (H2), with a recovery period of 8 hours at room temperature between the first heating and the second heating.

Compound: O=C1NCCC/C1=C\c1ccc2c(c1)OCO2 [Compound 103]
- Expression Rate (%) Transformant A ([1]; 5 μM): 47%
- Expression Rate (%) Transformant A ([1]; 50 μM): 10%
- Expression Rate (%) Transformant A ([1]; 100 μM): 2%
- Expression Rate (%) Transformant B ([2]; 5 μM): 93%
- Expression Rate (%) Transformant B ([2]; 50 μM): 62%
- Expression Rate (%) Transformant B ([2]; 100 μM): 46%
- Transcription Amount of HSP70 (induced type) [3]: 0.1
- Suppression of mRNA transcription of HSP70 (in words) [3]: specifically and significantly suppressed
- HSP Induction by Heat Shock Treatment, HPS40 [4]: ↓↓↓
- HSP Induction by Heat Shock Treatment, HSP47 [5]: ↓↓↓
- HSP Induction by Heat Shock Treatment, HSP70 [6]: ↓↓↓
- HSP Induction by Heat Shock Treatment, HSP90 [7]: ↓↓↓
- HSP Induction by Heat Shock Treatment, HSP100 [8]: ↓↓↓
- β-actin synthesis by Heat Shock Treatment (internal control) [9]: no change
- Surviving Fraction (%) [10]: <1%
- No-Movement Period [11]: 90 s
- Suppression Rate (%) [11]: 56%

Compound: O=CN1CC/C(=C\c2ccc3c(c2)OCO3)C1=O [Compound 102]
- Expression Rate (%) Transformant A ([1]; 5 μM): 57%
- Expression Rate (%) Transformant A ([1]; 50 μM): 3%
- Expression Rate (%) Transformant A ([1]; 100 μM): 0%
- Expression Rate (%) Transformant B ([2]; 5 μM): 88%
- Expression Rate (%) Transformant B ([2]; 50 μM): 75%
- Expression Rate (%) Transformant B ([2]; 100 μM): 69%
- Transcription Amount of HSP70 (induced type) [3]: 0.04
- Suppression of mRNA transcription of HSP70 (in words) [3]: specifically and significantly suppressed
- HSP Induction by Heat Shock Treatment, HPS40 [4]: ↓↓↓
- HSP Induction by Heat Shock Treatment, HSP47 [5]: ↓↓↓
- HSP Induction by Heat Shock Treatment, HSP70 [6]: ↓↓↓
- HSP Induction by Heat Shock Treatment, HSP90 [7]: ↓↓↓
- HSP Induction by Heat Shock Treatment, HSP100 [8]: ↓↓↓
- β-actin synthesis by Heat Shock Treatment (internal control) [9]: no change
- Surviving Fraction (%) [10]: <1%
- Mean days before tumor tripled ([12]; 200 mg/kg i.p. 6 hours before first heating, 44° C. 10 min (H1), 8 hr, 30 min (H2)): 12.6 days
- Mean days before tumor tripled ([12]; 200 mg/kg i.p., 44° C., 30 min heating): 13.3 days
- Mean days before tumor tripled ([12]; 200 mg/kg intraperitoneally once, no heating): 8.4 days

Compound: CN(C)CCCN1c2ccccc2CCc2ccccc21 [Imipramine, imipramine, reference compound]
- No-Movement Period [11]: 180 s
- Suppression Rate (%) [11]: 12%

Compound: O=C1NCC/C1=C\c1ccc2c(c1)OCO2 [Compound 101]
- Expression Rate (%) Transformant A ([1]; 5 μM): 46%
- Expression Rate (%) Transformant A ([1]; 50 μM): 1%
- Expression Rate (%) Transformant B ([2]; 5 μM): 90%
- Expression Rate (%) Transformant B ([2]; 50 μM): 61%
- Transcription Amount of HSP70 (induced type) [3]: 0.03
- Suppression of mRNA transcription of HSP70 (in words) [3]: specifically and significantly suppressed
- HSP Induction by Heat Shock Treatment, HPS40 [4]: ↓↓↓
- HSP Induction by Heat Shock Treatment, HSP47 [5]: ↓↓↓
- HSP Induction by Heat Shock Treatment, HSP70 [6]: ↓↓↓
- HSP Induction by Heat Shock Treatment, HSP90 [7]: ↓↓↓
- HSP Induction by Heat Shock Treatment, HSP100 [8]: ↓↓↓
- β-actin synthesis by Heat Shock Treatment (internal control) [9]: no change
- Surviving Fraction (%) [10]: <1%
- No-Movement Period [11]: 145 s
- Suppression Rate (%) [11]: 29%

Compound: O=c1c(O)c(-c2ccc(O)c(O)c2)oc2cc(O)cc(O)c12 [Quercetin, quercetin, reference compound]
- Expression Rate (%) Transformant A ([1]; 5 μM): 99%
- Expression Rate (%) Transformant A ([1]; 50 μM): 25%
- Expression Rate (%) Transformant A ([1]; 100 μM): 6%
- Expression Rate (%) Transformant B ([2]; 5 μM): 96%
- Expression Rate (%) Transformant B ([2]; 50 μM): 82%
- Expression Rate (%) Transformant B ([2]; 100 μM): 58%
- Transcription Amount of HSP70 (induced type) [3]: 0.4
- HSP Induction by Heat Shock Treatment, HPS40 [4]: ↓↓
- HSP Induction by Heat Shock Treatment, HSP47 [5]: ↓↓
- HSP Induction by Heat Shock Treatment, HSP70 [6]: ↓
- HSP Induction by Heat Shock Treatment, HSP90 [7]: ↓
- HSP Induction by Heat Shock Treatment, HSP100 [8]: ↓
- β-actin synthesis by Heat Shock Treatment (internal control) [9]: no change
- Surviving Fraction (%) [10]: 6%

Compound: CC(=O)N1CCC(=Cc2ccc3c(c2)OCO3)C1=O [Compound C, 1-acetyl-3-benzo-(1,3)dioxole-5-ylmethylene-pyrrolidin-2-one]
- Expression Rate (%) Transformant A ([1]; 5 μM): 40%
- Expression Rate (%) Transformant A ([1]; 50 μM): 11%
- Expression Rate (%) Transformant B ([2]; 5 μM): 91%
- Expression Rate (%) Transformant B ([2]; 50 μM): 88%
